This experiment can be described thus: rat Vogel conflict drinking test. Format: in vivo.

Turning to `CN1C(=O)N(c2ccc(C#Cc3ccccc3)cn2)[C@@H]2CC[C@@H]21` [Example 1, (−)-(1S,5R)-2-methyl-4-(5-(phenylethynyl)pyridin-2-yl)-2,4-diazabicyclo[3.2.0]heptan-3-one], the “anxiolytic activity, minimal effective dose” value was 0.1 mg/kg.

These data come from patent publication US12195413B2, “Ethynyl derivatives” (Hoffmann-La Roche Inc., priority 2015, dated 2025).
